Here are results for 24 molecules from US10077261B2, “Imidazolin-5-one derivative useful as FASN inhibitors for the treatment of cancer” (Janssen Pharmaceutica NV, priority 2012, dated 2018).

For this assay, the target named is T1, hFASN enzyme (full length) (Homo sapiens, UniProt P49327).
T1 construct: 10 μL hFASN enzyme (full length, 300 ng, purified in house); made in house
The assay is described as follows: Fatty Acid Synthase (FASN) inhibition scintillation proximity assay. The settings on record: for inhibition at 10 µM: read-out: Human FASN % inhibition @ 10 μM, 10 μM test compound; for IC50: read-out: Human FASN pIC50 (converted). The class given is biochemical. A digest of the protocol: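 Purified full-length hFASN (300 ng) converts ^3H-acetyl-CoA plus malonyl-CoA to ^3H-palmitate in 100 mM KH2PO4 pH 7.5, 1 mM DTT; compounds tested at 0.01–30 μM. Product captured on streptavidin imaging beads and read by LEADseeker at 610 nm after ≥24 h; 4-parameter logistic fit versus controls.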
For orientation: Scintillation proximity formats need no separation of bound from free tracer.

T1 sequence (P49327 whole entry): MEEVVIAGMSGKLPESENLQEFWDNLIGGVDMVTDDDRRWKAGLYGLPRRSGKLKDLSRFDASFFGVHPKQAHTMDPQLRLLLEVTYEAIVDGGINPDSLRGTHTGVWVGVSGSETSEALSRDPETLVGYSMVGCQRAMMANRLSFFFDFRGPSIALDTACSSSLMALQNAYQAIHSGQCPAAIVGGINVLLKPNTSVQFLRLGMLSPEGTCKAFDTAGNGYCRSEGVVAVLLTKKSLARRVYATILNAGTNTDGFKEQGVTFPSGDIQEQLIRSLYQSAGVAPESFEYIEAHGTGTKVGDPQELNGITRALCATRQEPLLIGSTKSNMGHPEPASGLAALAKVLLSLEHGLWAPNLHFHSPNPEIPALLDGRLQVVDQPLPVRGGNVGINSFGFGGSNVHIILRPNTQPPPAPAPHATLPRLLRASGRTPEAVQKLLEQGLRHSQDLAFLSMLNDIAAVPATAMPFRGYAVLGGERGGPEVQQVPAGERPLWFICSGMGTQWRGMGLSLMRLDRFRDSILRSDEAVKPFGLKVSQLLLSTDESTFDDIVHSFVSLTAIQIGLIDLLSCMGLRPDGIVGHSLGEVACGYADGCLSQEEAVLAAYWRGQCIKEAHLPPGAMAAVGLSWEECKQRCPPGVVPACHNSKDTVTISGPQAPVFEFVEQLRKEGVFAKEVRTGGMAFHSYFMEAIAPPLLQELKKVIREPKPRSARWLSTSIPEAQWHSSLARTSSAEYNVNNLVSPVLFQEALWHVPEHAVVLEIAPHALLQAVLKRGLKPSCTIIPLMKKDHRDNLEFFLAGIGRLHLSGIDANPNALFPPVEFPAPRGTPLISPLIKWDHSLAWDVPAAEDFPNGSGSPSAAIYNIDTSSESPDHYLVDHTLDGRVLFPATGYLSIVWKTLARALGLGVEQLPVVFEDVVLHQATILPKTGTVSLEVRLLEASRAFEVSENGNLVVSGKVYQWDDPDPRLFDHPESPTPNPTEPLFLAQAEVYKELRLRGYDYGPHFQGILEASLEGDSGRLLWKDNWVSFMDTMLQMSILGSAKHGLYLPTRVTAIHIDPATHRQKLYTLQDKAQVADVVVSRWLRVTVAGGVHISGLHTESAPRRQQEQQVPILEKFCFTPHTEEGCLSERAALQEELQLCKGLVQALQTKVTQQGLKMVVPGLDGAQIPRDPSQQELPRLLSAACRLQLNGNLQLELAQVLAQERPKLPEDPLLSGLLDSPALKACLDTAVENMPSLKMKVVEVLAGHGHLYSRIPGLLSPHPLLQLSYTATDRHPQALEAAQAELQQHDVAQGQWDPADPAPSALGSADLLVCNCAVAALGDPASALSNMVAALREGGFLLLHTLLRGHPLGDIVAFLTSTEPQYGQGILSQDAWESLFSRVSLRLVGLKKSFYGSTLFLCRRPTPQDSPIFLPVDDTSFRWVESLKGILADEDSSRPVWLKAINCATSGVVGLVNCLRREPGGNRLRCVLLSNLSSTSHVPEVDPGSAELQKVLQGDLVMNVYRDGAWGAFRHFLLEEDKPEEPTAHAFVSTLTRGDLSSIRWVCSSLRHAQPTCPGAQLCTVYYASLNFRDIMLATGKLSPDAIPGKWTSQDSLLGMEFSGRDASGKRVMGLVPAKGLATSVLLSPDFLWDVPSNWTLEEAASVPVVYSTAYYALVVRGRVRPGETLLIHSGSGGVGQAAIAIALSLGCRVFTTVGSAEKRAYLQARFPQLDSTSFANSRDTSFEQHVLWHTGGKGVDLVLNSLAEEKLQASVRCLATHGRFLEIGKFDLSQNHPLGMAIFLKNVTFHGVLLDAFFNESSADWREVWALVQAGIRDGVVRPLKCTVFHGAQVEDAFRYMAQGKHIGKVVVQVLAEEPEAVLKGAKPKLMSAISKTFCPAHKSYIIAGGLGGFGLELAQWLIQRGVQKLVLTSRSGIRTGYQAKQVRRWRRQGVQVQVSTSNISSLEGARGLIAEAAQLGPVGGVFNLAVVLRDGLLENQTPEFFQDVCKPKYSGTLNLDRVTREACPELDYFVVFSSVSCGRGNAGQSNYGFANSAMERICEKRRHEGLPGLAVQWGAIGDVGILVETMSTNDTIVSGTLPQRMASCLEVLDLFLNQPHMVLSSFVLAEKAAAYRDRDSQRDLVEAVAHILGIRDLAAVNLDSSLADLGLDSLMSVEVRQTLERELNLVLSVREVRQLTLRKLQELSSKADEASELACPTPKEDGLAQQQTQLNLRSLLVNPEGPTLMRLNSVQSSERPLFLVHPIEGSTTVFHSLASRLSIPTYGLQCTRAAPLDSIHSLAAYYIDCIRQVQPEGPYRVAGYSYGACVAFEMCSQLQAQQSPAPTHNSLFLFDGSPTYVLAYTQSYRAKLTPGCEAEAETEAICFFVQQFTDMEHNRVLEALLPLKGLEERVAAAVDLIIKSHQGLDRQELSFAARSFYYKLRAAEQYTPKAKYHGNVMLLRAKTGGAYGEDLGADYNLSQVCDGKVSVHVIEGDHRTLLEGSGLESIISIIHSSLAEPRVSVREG

Consider `O=C(C1CC1)N1CC[C@@H](CN2C(=O)C3(CC3)N=C2c2ncc(-c3ccc4occc4c3)cn2)C1` [compound 437, 5-[5-(1-Benzofuran-5-yl)pyrimidin-2-yl]-6-{[(3R)-1-(cyclopropylcarbonyl)pyrrolidin-3-yl]methyl}-4,6-diazaspiro[2.4]hept-4-en-7-one], for which the inhibition (usually the drop in the measured response relative to a control, in per cent) at 10 µM is 72% and the IC50 was 2.75 µM.

Regarding `Cn1ncc2cc(-c3cnc(C4=NC5(CC5)C(=O)N4C[C@@H]4CCN(C(=O)C5CC5)C4)nc3)ccc21` [compound 438, 6-{[(3R)-1-(Cyclopropylcarbonyl)pyrrolidin-3-yl]methyl}-5-[5-(1-methyl-1H-indazol-5-yl)pyrimidin-2-yl]-4,6-diazaspiro[2.4]hept-4-en-7-one], the inhibition at 10 µM was found to be 65% and the IC50 is 3.31 µM.

Consider `O=C(C1CC1)N1CC[C@@H](CN2C(=O)C3(CC3)N=C2c2cnc(-c3ccc4occc4c3)cn2)C1` [compound 439, 5-[5-(1-Benzofuran-5-yl)pyrazin-2-yl]-6-{[(3R)-1-(cyclopropylcarbonyl)pyrrolidin-3-yl]methyl}-4,6-diazaspiro[2.4]hept-4-en-7-one], for which the inhibition at 10 µM was 48% and the IC50 is 9.55 µM.

Take `Cn1ncc2cc(-c3ccc(C4=NC5(CC5)C(=O)N4CC4CN(C(=O)C5CC5)C4)cc3F)ccc21` [compound 441, 6-{[1-(Cyclopropylcarbonyl)azetidin-3-yl]methyl}-5-[3-fluoro-4-(1-methyl-1H-indazol-5-yl)phenyl]-4,6-diazaspiro[2.4]hept-4-en-7-one]: the inhibition at 10 µM came out at 63% and the IC50 was 3.98 µM.

On to `Cc1cc2cc(-c3ccc(C4=NC5(CC5)C(=O)N4CC4CN(C(=O)C5CC5)C4)cc3C)ccc2s1` [compound 446, 6-{[1-(Cyclopropylcarbonyl)azetidin-3-yl]methyl}-5-[3-methyl-4-(2-methyl-1-benzothiophen-5-yl)phenyl]-4,6-diazaspiro[2.4]hept-4-en-7-one], for which the inhibition at 10 µM stood at 60% and the IC50 was 5.01 µM.

Consider `Cc1cc(C2=NC3(CC3)C(=O)N2CC2CN(C(=O)C3CC3)C2)ccc1-c1ccc2sc(C)c(C)c2c1` [compound 447, 6-{[1-(Cyclopropylcarbonyl)azetidin-3-yl]methyl}-5-[4-(2,3-dimethyl-1-benzothiophen-5-yl)-3-methylphenyl]-4,6-diazaspiro[2.4]hept-4-en-7-one], for which the inhibition at 10 µM came to 79% and the IC50 is 1.2 µM.

In the case of `Cc1cc(C2=NC3(CC3)C(=O)N2CC2CN(C(=O)C3CC3)C2)ccc1-c1ccc2[nH]ncc2c1` [compound 448, 6-{[1-(Cyclopropylcarbonyl)azetidin-3-yl]methyl}-5-[4-(1H-indazol-5-yl)-3-methylphenyl]-4,6-diazaspiro[2.4]hept-4-en-7-one], the inhibition at 10 µM is 50% and the IC50 was 8.51 µM.

Take `O=C(C1CC1)N1CC(CN2C(=O)C3(CC3)N=C2c2ccc(-c3ccc4[nH]ncc4c3)c(F)c2)C1` [compound 451, 6-{[1-(Cyclopropylcarbonyl)azetidin-3-yl]methyl}-5-[3-fluoro-4-(1H-indazol-5-yl)phenyl]-4,6-diazaspiro[2.4]hept-4-en-7-one]: the inhibition at 10 µM is 82% and the IC50 is 1.26 µM.

Take `CC(C)n1ncc2cc(-c3ccc(C4=NC5(CC5)C(=O)N4C[C@@H]4CCN(C(=O)C5CC5)C4)cc3)ccc21` [compound 454, 6-{[(3R)-1-(Cyclopropylcarbonyl)pyrrolidin-3-yl]methyl}-5-{4-[1-(1-methylethyl)-1H-indazol-5-yl]phenyl}-4,6-diazaspiro[2.4]hept-4-en-7-one]: the inhibition at 10 µM was determined as 53% and the IC50 was roughly 6.03 µM.

In the case of `O=C(C1CC1)N1CC[C@@H](CN2C(=O)C3(CC3)N=C2c2ccc(-c3ccc4c(c3)OCCO4)cc2)C1` [compound 456, 6-{[(3R)-1-(Cycloprop-ylcarbonyl)pyrrolidin-3-yl]methyl}-5-[4-(2,3-dihydro-1,4-benzodioxin-6-yl)phenyl]-4,6-diazaspiro[2.4]hept-4-en-7-one], the inhibition at 10 µM was 65% and the IC50 was 6.92 µM.

For the molecule `O=C(C1CC1)N1CC[C@@H](CN2C(=O)C3(CC3)N=C2c2cnc(-c3ccc4occc4c3)nc2)C1` [compound 458, 5-[2-(1-Benzofuran-5-yl)pyrimidin-5-yl]-6-{[(3R)-1-(cyclopropylcarbonyl)pyrrolidin-3-yl]methyl}0-4,6-diazaspiro[2.4]hept-4-en-7-one], the inhibition at 10 µM worked out at 48% and the IC50 is 8.13 µM.

In the case of `Cn1ncc2cc(-c3ncc(C4=NC5(CC5)C(=O)N4C[C@@H]4CCN(C(=O)C5CC5)C4)cn3)ccc21` [compound 459, 6-{[(3R)-1-(Cyclopropylcarbonyl)pyrrolidin-3-yl]methyl}-5-[2-(1-methyl-1H-indazol-5-yl)pyrimidin-5-yl]-4,6-diazaspiro[2.4]hept-4-en-7-one], the inhibition at 10 µM worked out at 43%. Moreover, the “Human FASN pIC50” value (hFASN enzyme, full length, "~" means standard error of the pIC50 is larger than 0.5) worked out at 5.06.

Consider `Cc1cc(C2=NC3(CC3)C(=O)N2CC2CN(C(=O)C3CC3)C2)ccc1-c1ccc2oc(C#N)cc2c1` [compound 460, 5-[4-(6-{[1-(Cyclopropylcarbonyl)azetidin-3-yl]methyl}-7-oxo-4,6-diazaspiro[2.4]hept-4-en-5-yl)-2-methylphenyl]-1-benzofuran-2-carbonitrile], for which the inhibition at 10 µM is 63% and the IC50 is 3.09 µM.

`O=C(C1CC1)N1CC[C@@H](CN2C(=O)C3(CC3)N=C2c2ccc(-c3ccc4c(c3)CCCO4)cc2)C1` [compound 464, 6-{[(3R)-1-(Cyclopropylcarbonyl)pyrrolidin-3-yl]methyl}-5-[4-(3,4-dihydro-2H-chromen-6-yl)phenyl]-4,6-diazaspiro[2.4]hept-4-en-7-one]: the inhibition at 10 µM amounted to 66% and the IC50 was 4.07 µM.

`N#Cc1cc2cc(-c3ccc(C4=NC5(CC5)C(=O)N4CC4CN(C(=O)C5CC5)C4)cc3F)ccc2o1` [compound 477, 5-[4-(6-{[1-(Cyclopropylcarbonyl)azetidin-3-yl]methyl}-7-oxo-4,6-diazaspiro[2.4]hept-4-en-5-yl)-2-fluorophenyl]-1-benzofu8ran-2-carbonitrile]: the inhibition at 10 µM is 67% and the IC50 was 3.09 µM.

For `O=C(C1CC1)N1CC[C@@H](CN2C(=O)C3(CC3)N=C2c2ccc(-c3cc4cc(Br)ccc4cn3)cc2)C1` [compound 478, 5-[4-(6-Bromoisoquinolin-3-yl)phenyl]-6-{[(3R)-1-(cyclopropylcarbonyl)pyrrolidin-3-yl]methyl}-4,6-diazaspiro[2.4]hept-4-en-7-one], the inhibition at 10 µM stood at 92% and the IC50 is 1.38 µM.

In the case of `O=C(C1CC1)N1CC(CN2C(=O)C3(CC3)N=C2c2ccc(-c3ccc4nccnc4c3)cc2)C1` [compound 481, 6-{[1-(Cyclopropylcarbonyl)azetidin-3-yl]methyl}-5-(4-quinoxalin-6-ylphenyl)-4,6-diazaspiro[2.4]hept-4-en-7-one], the inhibition at 10 µM is 68% and the IC50 is 2.19 µM.

Take `O=C(C1CC1)N1CC(CN2C(=O)C3(CC3)N=C2c2ccc(-c3ccc(N4CCCC4)nc3)cc2)C1` [compound 482, 6-{[1-(Cyclopropylcarbonyl)azetidin-3-yl]methyl}-5-[4-(6-pyrrolidin-1-ylpyridin-3-yl)phenyl]-4,6-diazaspiro[2.4]hept-4-en-7-one]: the inhibition at 10 µM came to 76% and the IC50 was 1.32 µM.

Turning to `Cn1nc2ccc(-c3ccc(C4=NC5(CC5)C(=O)N4C[C@@H]4CCN(C(=O)C5CC5)C4)cc3)cc2c1CO` [compound 487, 6-{[(3R)-1-(Cyclopropylcarbonyl)pyrrolidin-3-yl]methyl}-5-{4-[3-(hydroxymethyl)-2-methyl-2H-indazol-5-yl]phenyl}-4,6-diazaspiro[2.4]hept-4-en-7-one], the inhibition at 10 µM stood at 81% and the IC50 was 1.17 µM.

As for `Cc1cc(-c2ccc(C3=NC4(CC4)C(=O)N3CC3CN(C(=O)C4CC4)C3)cc2)cc2cnn(C)c12` [compound 492, 6-{[1-(Cyclopropylcarbonyl)azetidin-3-yl]methyl}-5-[4-(1,7-dimethyl-1H-indazol-5-yl)phenyl]-4,6-dazaspiro[2.4]hept-4-en-7-one], the inhibition at 10 µM was determined as 77% and the IC50 was 1 µM.

Turning to `Cn1c(=O)c2cc(-c3ccc(C4=NC5(CC5)C(=O)N4C[C@@H]4CCN(C(=O)C5CC5)C4)cc3)ccc2n1C` [compound 500, 5-[4-(6-{[(3R)-1-(Cyclopropylcarbonyl)pyrrolidin-3-yl]methyl}-7-oxo-4,6-diazaspiro[2.4]hept-4-rn-5-yl)phenyl]-1,2-dimethyl-1,2-dihydro-3H-indazol-3-one], the inhibition at 10 µM is 74% and the IC50 is roughly 2.75 µM.

As to `O=C(C1CC1)N1CC(CN2C(=O)C3(CC3)N=C2c2ccc(-c3ccc4nn(CC5CC5)cc4c3)cc2)C1` [compound 501, 6-{[1-(Cyclopropylcarbonyl)azetidin-3-yl]methyl}-5-{4-[2-(cyclopropylmethyl)-2H-indazol-5-yl]phenyl}-4,6-diazaspiro[2.4]hept-4-en-7-one], the inhibition at 10 µM stood at 52% and the IC50 was 8.32 µM.

As for `Cn1ncc2cc(-c3ccc(C4=NC5(CC5)C(=O)N4CC4CN(C(=O)C5CC5)C4)cc3)cnc21` [compound 503, 6-{[1-(Cyclopropylcarbonyl)azetidin-3-yl]methyl}-5-[4-(1-methyl-1H-pyrazolo[3,4-b]pyridin-5-yl)phenyl]-4,6-diazaspiro[2.4]hept-4-en-7-one], the inhibition at 10 µM stood at 58% and the IC50 is 5.75 µM.

On to `O=C(C1CC1)N1CC(CN2C(=O)C3(CC3)N=C2c2ccc(-c3ccc4oncc4c3)cc2)C1` [compound 504, 5-[4-(1,2-Benzisoxazol-5-yl)phenyl]-6-{[1-(cyclopropylcarbonyl)azetidin-3-yl]methyl}-4,6-diazaspiro[2.4]hept-4-en-7-one], for which the inhibition at 10 µM stood at 42% and the IC50 is 8.51 µM.
